Results reported in patent publication US8841004B2, “Binaphthyl compound and organic light emitting element using the same” (Canon Kabushiki Kaisha, priority 2007, dated 2014).
In brackets after ≈: the same amount, converted by molar mass.

Assay: Solubility in chlorobenzene heated at 130° C.
Type: physicochemical
Method: Solubility of Example Compound A-02 in chlorobenzene heated at 130° C. was examined.
Comparative Compound H-2 (Comparative Example 2), Comparative Compound H-3 (Comparative Example 3) and Comparative Compound H-5 (Comparative Example 5) were respectively synthesized and solubility in chlorobenzene was examined in the same manner as in Example 1-(C). The results are shown in Table 3 along with those of Examples 1 to 3.

Row | Compound | Solubility (chlorobenzene, 130° C.)
1 | CC1(C)c2ccccc2-c2ccc(-c3ccc4cc(-c5ccc6cc(-c7ccc8c(c7)C(C)(C)c7ccccc7-8)ccc6c5)ccc4c3)cc21 [Comparative Compound H-2] | 3300 µg/mL (≈ 5.17 mM)
2 | CC1(C)c2ccccc2-c2ccc(-c3ccc4c(c3)C(C)(C)c3cc(-c5ccc6cc(-c7ccc8ccccc8c7)ccc6c5)ccc3-4)cc21 [Example Compound A-02] | 16000 µg/mL (≈ 25 mM)

Results, then the compound that gave them:

Row | Solubility (chlorobenzene, 130° C.) | Compound
3 | less than 0.6 g/L | CC1(C)c2ccccc2-c2ccc(-c3ccc4cc(-c5ccc6cc(-c7ccc8cc(-c9ccc%10c(c9)C(C)(C)c9ccccc9-%10)ccc8c7)ccc6c5)ccc4c3)cc21 [Comparative Compound H-3]
4 | 3500 µg/mL (≈ 4.21 mM) | CC1(C)c2cc(-c3ccc4c(c3)C(C)(C)c3cc(-c5ccc6ccccc6c5)ccc3-4)ccc2-c2ccc(-c3ccc4c(c3)C(C)(C)c3cc(-c5ccc6ccccc6c5)ccc3-4)cc21 [Comparative Compound H-5]
5 | 9400 µg/mL (≈ 11.3 mM) | CC1(C)c2ccccc2-c2ccc(-c3ccc4c(c3)C(C)(C)c3cc(-c5ccc6c(c5)C(C)(C)c5cc(-c7ccc8cc(-c9ccc%10ccccc%10c9)ccc8c7)ccc5-6)ccc3-4)cc21 [Example Compound B-18]
